Test results from US20260337177A1, “TEAD CORE INHIBITORS FOR CANCER THERAPEUTICS” (University of Florida Research Foundation, Incorporated, priority 2023, published 2026).
Several values for one entry are separate records, joined by “and”; a condition that tells them apart may be missing. Equal values may be shown once. One block for each molecule: values may come before it.

Experiments:
TEAD [1] = conditions: literature; cited from earlier work
YAP/TEAD = conditions: literature; cited from earlier work
CTGF [2] = test: CTGF mRNA expression by RT-qPCR in Huh7 cells; assay type: cell-based, human; conditions: dose-dependent
Procedure: Huh7 and HepG2 liver cancer cells were seeded at 1×10^6 cells/dish and allowed to adhere overnight. The cells were then treated with indicated doses of compounds in medium for 24 hours. The cells were then harvested, and total RNA was purified using the Aurum total RNA mini kit (Bio-Rad #732-6820) according to the manufacturer's instructions. Complementary DNA was synthesized from 500 ng total RNA template by iScript reverse transcription kit (Bio-Rad #1725037) according to the manufacturer's instructions. Real-time PCR reactions utilized 60 ng cDNA and PrimePCR primers from Bio-Rad (Unique Assay ID: human GAPDH-qHsaCEP0041396, human CTGF-qHsaCEP0024255, human CYR61-qHsaCEP0024230) designed for SYBR Green gene expression analysis (Bio-Rad #1726270). All reactions were carried out in triplicate using Quant Studio 3 PCR system (Applied Biosystems). Relative gene expression level was quantified via ΔΔCt method by using GAPDH as an endogenous reference.

[3] = AML12 normal liver cell growth inhibition (CCK8); assay type: cell-based; conditions: mouse, aml12 cells
AML12 cells = test: AML12 normal liver cell growth inhibition (CCK8); assay type: cell-based; conditions: for Inhibitory rate, AML12 (inhibitory percentage of AML12 cell growth): 10 μM, 3 days
CTGF [4] = test: CTGF protein expression by western blotting in Huh7 cells; assay type: cell-based, human; conditions: dose-dependent
Procedure: Treated Huh7 cells were harvested and lysed in cold RIPA lysis buffer containing […] and phosphatase inhibitors. The protein concentrations were determined using the BCA Protein Assay kit. The prepared protein samples were loaded on and separated by 10% SDS-PAGE gel and then were transferred to PVDF membrane. Blots were blocked for 1 h at RT in blocking buffer and incubated with corresponding primary antibodies: anti-CTGF (ab227180), and anti-GAPDH (ab9485), at 4 ° C overnight. Then the blots were incubated with HRP-conjugated anti-rabbit secondary antibody in blocking buffer for 1.5 h at RT. The membranes were imaged with ChemiDoc MP imaging system.

TEADs = test: TEAD-specific 8×GTIIC-luciferase reporter assay; assay type: cell-based; conditions: for inhibition at 10 µM: 8×GTIIC-luciferase, read-out: Luciferase reporter assay inhibitory rate; for IC50: dose response, read-out: TEADs transcription inhibition IC50, luciferase reporter assay
Procedure: A series of compounds featuring a chloromethyl ketone moiety were synthesized (Schemes 1-4). The inhibitory rate of this series of compounds was tested using 8×GTIIC-luciferase reporter assay at 10 μM.
Next, the inhibition of TEAD transcription activity of compounds was tested varying the dosage using the 8×GTIIC-luciferase reporter assay. […] The aim was to determine whether its inhibition of TEAD transcription can lead to downregulation of the YAP-TEAD target genes. CTGF is one of the best characterized (bona fide) target gene of YAP and TAZ.
To further investigate the mechanism of the inhibitory effect of compounds in Huh7 cells, TEADs specific luciferase reporter assays were performed with compounds 22 and 12 at several concentrations. […] TEAD downstream gene expression patterns were evaluated in liver cancer cells Huh7, which has been evidenced with relative high expression of YAP and TEAD2.
HEK 293T cells were plated at 2×10^4 cells/well in a 96 well microplate and were transfected with 50 ng of 8×GTIIC-luciferase plasmid (Addgene #34615) and 0.5 ng of pRL-CMV (Promega #E226A) by using lipofectamine 3000 (Life Technologies #L3000). The 8×GTIIc-luciferase reporter is a Yap/Taz-activity reporter containing eight TEAD consensus binding sequences. After 6 h, transfected cells were treated with various concentrations of compounds or DMSO control. Luciferase signals were measured using the Dual Luciferase Reporter Assay System (Promega, E1960) according to the manufacturer's instructions. Experiments were performed in triplicate and repeated at least three times.

Huh7 cells = test: Huh7 cell proliferation assay (CCK8); assay type: cell-based, human; conditions: Homo sapiens, Huh-7, 72 h; 3 days; CCK8; mean ± SD of three independent experiments; read-out: Cell proliferation assay IC50, Huh7
Procedure: CCK8 assay kit was used to determine antiproliferative activity of synthesized compounds against Huh7 cell line. First, Huh7 cells were seeded into 96-well plates at a density of 3000 cells/well and incubated overnight. Cells were then co-incubated with compounds at 8 concentrations for 72 h. Then, the cell proliferation was determined by the CCK8 kit according to the standard protocol. Experiments were performed in triplicate.

TEAD [5] = test: Fluorescence polarization assay; assay type: binding; conditions: FIG. 1D
Description: FIGS. 1A-1D depict discovery of C-3 as moderate TEAD transcription inhibitor. (FIG. 1A) The flowchart of the docking-based virtual screening campaign. (FIG. 1B) Predicted binding mode of C-3 in TEAD2 lipid binding pocket.

YAP-TEAD = conditions: all four TEAD family members; cited from earlier work
YAP [6] = conditions: literature; cited from earlier work
YAP [7] = conditions: literature; cited from earlier work; remark: listed apart in the source
Huh7 xenograft = test: Huh7 mouse xenograft model, antitumor efficacy; assay type: in vivo, NSG mouse; conditions: Sorafenib 100 mg/kg oral every three days for 24 days
Procedure: Based on the favorable in vitro potency and low toxicity, the in vivo antitumor efficacy of compound 22 was further evaluated in the NSG mouse (NOD scid gamma mouse) xenograft model from human Huh7 cells. Sorafenib, the first-line treatment for primary hepatocellular carcinoma (HCC) patients, served as the control. Compound 22 was tested as a monotherapy and in combination with Sorafenib.
The animals were administered 10 mg/kg of compound 22 twice a week for four weeks via intraperitoneal (IP) injection.
The mice were administered 50 mg/kg of compound 22 every three day for 24 days via intraperitoneal (IP) injection. Sorafenib was administered orally at a dose of 100 mg/kg following the same schedule.
Tumors were implanted by subcutaneous injection of 5×10^6 Huh7 cells in 100 μL of PBS containing 10% matrix gel (Coming, NY, USA), into the right flank of the mouse. When the tumor volume reached about 85 mm^3, mice were randomized into the vehicle control group (n=5) and a treatment group (n=5). The vehicle group (n=5) received the vehicle only (50% phosal 50 PG, 45% miglyol 810 N and 5% polysorbate 80), while the treatment group (n=5) was given compound 22 (50 mg/kg in 50% phosal 50 PG, 45% miglyol 810 N and 5% polysorbate 80) via IP injection every three days. After 24 days, mice were euthanized. Sorafenib (100 mg/kg, every three day) was dissolved in 75% Ethanol and Cremophor EL (1:1) and administered directly into the animals' stomachs using a gastric probe. Tumor size and body weight were measured every 3 days, and tumor volume was estimated using the formula volume=½×length×width^2. Tumor growth inhibition value (TGI) was calculated as TGI (%) [1−Vt/Vc]×100, where Vc and Vt were […].

Compound: Cc1ccc2c(c1)c1c3n2CCNC3CCC1 (centres unmarked) [CPD3.1]
TEAD reporter activity (TEAD [1]): inhibits TEAD reporter activity | YAP/TEAD interaction, co-IP (YAP/TEAD): disrupt YAP/TEAD interaction

Compound: O=C(CCl)c1c[nH]c2cc(Cl)c(OCc3ccc4ccccc4c3)cc12 [Compound 2, 2-chloro-1-(6-chloro-5-(naphthalen-2-ylmethoxy)-1H-indol-3-yl)ethan-1-one]
CTGF mRNA expression, Huh7 (CTGF [2]): significantly decreased | inhibition at 10 µM ([3]; "at 10 M", read-out: Inhibitory rate of AML cells): 32% | Toxicity towards normal liver cell line AML12 (AML12 cells): least toxic of the covalent compounds | Inhibitory rate, AML12 (inhibitory percentage of AML12 cell growth) (AML12 cells): 32.1% | CTGF protein expression, Huh7 (CTGF [4]): dose-dependent decrease | inhibition at 10 µM (TEADs): 95.6% | IC50 (TEADs): 0.89 µM and 0.87 µM | TEAD transcription inhibition, luciferase reporter (TEADs; varying dosage, FIGS. 3A-3B): potent inhibition activity | IC50 (Huh7 cells): 2.3 ± 0.6 µM

IC50 (TEADs): 0.629 µM | IC50 (Huh7 cells): 1.2 ± 0.3 µM
Compound: O=C(CCl)NCc1c[nH]c2cc(Cl)c(OCc3ccccc3)cc12 [Compound 12, N-((5-(benzyloxy)-6-chloro-1H-indol-3-yl)methyl)-2-chloroacetamide]
CTGF mRNA expression, Huh7 (CTGF [2]): suppressed | Inhibitory rate, AML12 (inhibitory percentage of AML12 cell growth) (AML12 cells): 34.2% | CTGF protein expression, Huh7 (CTGF [4]): suppression of CTGF protein production | inhibition at 10 µM (TEADs): 97.8%

IC50 (TEADs): 5 µM | IC50 (Huh7 cells): 32.5 µM
Compound: Clc1cc2[nH]ccc2cc1OCc1ccccc1 [Compound C-3]
inhibition at 72 h, 10 µM ([3]; 10 μM, 3 days, read-out: Inhibitory rate, AML12 (inhibitory percentage of AML12 cell growth)): 20% | inhibition at 10 µM (TEADs): 68.3% | Fluorescence polarization, inhibition (TEAD [5]): inhibition

Compound: COc1ccc(-c2cc(-c3ccccc3)nc3c2CC(=O)Nc2ccccc2-3)cc1OC [NSC682769]
Association of YAP with TEAD family members (YAP-TEAD): inhibit its association with all four TEAD family members | YAP binding (YAP [6]): directly bind to YAP | YAP expression (YAP [7]): attenuates YAP expression

Compound: CNC(=O)c1cc(Oc2ccc(NC(=O)Nc3ccc(Cl)c(C(F)(F)F)c3)cc2)ccn1 [Sorafenib, reference compound]
Tumor growth inhibition (TGI) rate (Huh7 xenograft): 76%
